Series [1] is described as follows: MRT (0 to t) in Sprague-Dawley rat administered intragastrically. The class given is ADME. As to conditions: in vivo, po, route ig.
Series [2] relates to Mus musculus. As to the kind of experiment: Antiinflammatory activity in BALB/c mouse model of LPS induced sepsis assessed as inhibition of TNF-alpha production at 1.25 to 5 mg/kg, IG administered once a day for 3 days followed by LPS stimulation for 12 hrs starting from 2 hrs post last dose by qRT-PCR analysis. Conditions: dose 1.25-5 mg/kg, time 86.0 hrs. The class given is functional, organism-based.

The subject of series [3] is Mus musculus. As to the kind of experiment: Antiinflammatory activity in BALB/c mouse model of LPS induced sepsis assessed as inhibition of IFN-beta production at 1.25 to 5 mg/kg, IG administered once a day for 3 days followed by LPS stimulation for 12 hrs starting from 2 hrs post last dose by qRT-PCR analysis. Conditions: dose 1.25-5 mg/kg, time 86.0 hrs. The class given is functional, organism-based. In general terms: Quantitative PCR measures a nucleic acid by following its amplification.

Series [4] concerns the target T1, Inhibitor of nuclear factor kappa-B kinase subunit beta (Mus musculus) (UniProt O88351).
T1 sequence (whole entry): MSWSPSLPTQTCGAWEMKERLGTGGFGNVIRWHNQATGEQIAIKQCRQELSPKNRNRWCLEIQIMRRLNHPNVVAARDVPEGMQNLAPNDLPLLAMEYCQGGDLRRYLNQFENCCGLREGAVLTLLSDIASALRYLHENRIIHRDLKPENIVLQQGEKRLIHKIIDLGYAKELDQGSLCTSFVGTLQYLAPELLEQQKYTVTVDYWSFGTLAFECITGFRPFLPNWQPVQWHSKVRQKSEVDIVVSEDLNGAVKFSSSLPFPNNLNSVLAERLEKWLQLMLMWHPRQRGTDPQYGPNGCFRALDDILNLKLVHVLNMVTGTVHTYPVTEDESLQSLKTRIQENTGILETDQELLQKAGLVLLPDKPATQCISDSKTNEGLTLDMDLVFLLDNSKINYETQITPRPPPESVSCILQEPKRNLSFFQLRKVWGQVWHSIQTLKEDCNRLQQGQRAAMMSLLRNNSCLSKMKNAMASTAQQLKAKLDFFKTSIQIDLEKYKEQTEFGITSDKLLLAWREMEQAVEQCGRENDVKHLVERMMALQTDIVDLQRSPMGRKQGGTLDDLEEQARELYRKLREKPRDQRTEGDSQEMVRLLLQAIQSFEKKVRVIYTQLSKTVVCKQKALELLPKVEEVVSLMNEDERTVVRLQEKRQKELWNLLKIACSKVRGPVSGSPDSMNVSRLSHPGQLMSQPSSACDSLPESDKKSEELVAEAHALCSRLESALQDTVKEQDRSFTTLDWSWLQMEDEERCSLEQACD
The series is described as follows: Inhibition of IkappaB phosphorylation in LPS-induced mouse RAW264.7 cells preincubated with compound for 2 hrs followed by LPS stimulation and measured after 6 hrs by Western blot analysis. The class given is cell-based. As to conditions: dose 0.5-2 µM, time 8.0 hrs.

Series [5] has as its system Mus musculus. As to the kind of experiment: Protective activity against LPS induced sepsis in BALB/c mouse model of acute liver injury assessed as reduction in ALP level in serum at 1.25 to 5 mg/kg, IG administered once a day for 3 days followed by LPS stimulation for 12 hrs starting from 2 hrs post last dose by ELISA. The class given is functional, organism-based. As to conditions: dose 1.25-5 mg/kg, time 86.0 hrs.

Series [6] relates to Mus musculus. As to the kind of experiment: Protective activity against LPS induced sepsis in BALB/c mouse model of acute liver injury assessed as improvement in swollen hepatocytes at 1.25 to 5 mg/kg, IG administered once a day for 3 days followed by LPS stimulation for 12 hrs starting from 2 hrs post last dose by hematoxylin and eosin staining based analysis. The class given is functional, organism-based. Conditions: dose 1.25-5 mg/kg, time 86.0 hrs.

Series [7] can be described thus: AUC(0 to infinity) in Sprague-Dawley rat administered intragastrically. The class given is ADME. Also noted: route ig. As to conditions: in vivo, po.
Series [8] has as its system Mus musculus. The series is described as follows: Protective activity against LPS induced sepsis in BALB/c mouse model of acute liver injury assessed as improvement of disorderly arranged liver tissue at 1.25 to 5 mg/kg, IG administered once a day for 3 days followed by LPS stimulation for 12 hrs starting from 2 hrs post last dose by hematoxylin and eosin staining based analysis. The class given is functional, organism-based. Conditions: dose 1.25-5 mg/kg, time 86.0 hrs.

Series [9] is described as follows: Cmax in Sprague-Dawley rat administered intragastrically. Also noted: route ig. As to conditions: in vivo, po. The class given is ADME.
Another series concerns RAW264.7. As to the kind of experiment: Anti inflammatory activity in LPS-induced mouse RAW264.7 cells assessed as inhibition of NO production at 5 uM preincubated with compound for 2 hrs followed by LPS stimulation and measured after 24 hrs by griess reagent based assay relative to control. Conditions: time 26 hrs. The class given is functional. A general note: Nitrite, measured by Griess reagent, commonly stands in for NO production.

Series [10] relates to Mus musculus. The series is described as follows: Protective activity against LPS induced sepsis in BALB/c mouse model of acute liver injury assessed as reduction in AST level in serum at 1.25 to 5 mg/kg, IG administered once a day for 3 days followed by LPS stimulation for 12 hrs starting from 2 hrs post last dose by ELISA. The class given is functional, organism-based. Conditions: dose 1.25-5 mg/kg, time 86.0 hrs. On the technique in general: In an ELISA, binding on a coated surface is turned into a signal by an enzyme label.

Series [11] in a line: Half life in Sprague-Dawley rat administered intragastrically. The class given is ADME. Conditions: in vivo, po, route ig.
Series [12] deals with Mus musculus. As to the kind of experiment: Protective activity against LPS induced sepsis in BALB/c mouse model of acute liver injury assessed as improvement in congested hepatic sinusoids at 1.25 to 5 mg/kg, IG administered once a day for 3 days followed by LPS stimulation for 12 hrs starting from 2 hrs post last dose by hematoxylin and eosin staining based analysis. The class given is functional, organism-based. Conditions: dose 1.25-5 mg/kg, time 86.0 hrs.

Series [13] has as its target Transcription factor p65 (Mus musculus) (UniProt Q04207). The series is described as follows: Inhibition of p65 phosphorylation in LPS-induced mouse RAW264.7 cells preincubated with compound for 2 hrs followed by LPS stimulation and measured after 6 hrs by Western blot analysis. The class given is cell-based. As to conditions: dose 0.5-2 µM, time 8.0 hrs.
Series [14] concerns the target T2, Stimulator of interferon genes protein (Mus musculus) (UniProt Q3TBT3).
T2 sequence (whole entry): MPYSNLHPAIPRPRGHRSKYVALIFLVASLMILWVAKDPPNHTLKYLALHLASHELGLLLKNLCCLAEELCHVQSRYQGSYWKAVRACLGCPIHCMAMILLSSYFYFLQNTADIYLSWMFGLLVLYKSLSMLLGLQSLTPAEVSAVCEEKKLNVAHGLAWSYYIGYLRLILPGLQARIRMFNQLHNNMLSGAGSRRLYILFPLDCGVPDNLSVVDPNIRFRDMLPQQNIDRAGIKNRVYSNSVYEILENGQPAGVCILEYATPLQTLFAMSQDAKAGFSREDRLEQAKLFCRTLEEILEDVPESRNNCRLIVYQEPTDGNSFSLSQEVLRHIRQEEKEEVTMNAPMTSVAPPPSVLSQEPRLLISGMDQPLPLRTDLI
The series is described as follows: In vivo inhibition of STING in BALB/c mouse model of LPS induced sepsis assessed as inhibition of upregulation of phosphorylated IkappaB protein expression at 1.25 to 5 mg/kg, IG administered once a day for 3 days followed by LPS stimulation for 12 hrs starting from 2 hrs post last dose by Western blot analysis. The class given is functional, organism-based. As to conditions: dose 1.25-5 mg/kg, time 86.0 hrs.

Series [15] deals with Mus musculus. As to the kind of experiment: Antiinflammatory activity in BALB/c mouse model of LPS induced sepsis assessed as inhibition of IL-6 production at 1.25 to 5 mg/kg, IG administered once a day for 3 days followed by LPS stimulation for 12 hrs starting from 2 hrs post last dose by qRT-PCR analysis. The class given is functional, organism-based. Conditions: dose 1.25-5 mg/kg, time 86.0 hrs.

Series [16] deals with Mus musculus. As to the kind of experiment: Anti-sepsis activity against BALB/c mouse model of LPS induced sepsis assessed as reduction in STING protein expression in liver at 1.25 to 5 mg/kg, IG administered once a day for 3 days followed by LPS stimulation for 12 hrs starting from 2 hrs post last dose by Western blot analysis. The class given is functional, organism-based. Conditions: dose 1.25-5 mg/kg, time 86.0 hrs.

A short description of series [17]: Cytotoxicity against mouse RAW264.7 cells assessed as cell viability at 40 uM measured after 24 hrs by MTT assay relative to control. The class given is toxicity, cell-based. Conditions: read-out: Activity.
Series [18] is described as follows: MRT(0 to infinity) in Sprague-Dawley rat administered intragastrically. The class given is ADME. As to conditions: in vivo, po, route ig.

Calls of active or inactive are those of the source.

Sequence of Transcription factor p65 (Mus musculus) (Q04207 whole entry): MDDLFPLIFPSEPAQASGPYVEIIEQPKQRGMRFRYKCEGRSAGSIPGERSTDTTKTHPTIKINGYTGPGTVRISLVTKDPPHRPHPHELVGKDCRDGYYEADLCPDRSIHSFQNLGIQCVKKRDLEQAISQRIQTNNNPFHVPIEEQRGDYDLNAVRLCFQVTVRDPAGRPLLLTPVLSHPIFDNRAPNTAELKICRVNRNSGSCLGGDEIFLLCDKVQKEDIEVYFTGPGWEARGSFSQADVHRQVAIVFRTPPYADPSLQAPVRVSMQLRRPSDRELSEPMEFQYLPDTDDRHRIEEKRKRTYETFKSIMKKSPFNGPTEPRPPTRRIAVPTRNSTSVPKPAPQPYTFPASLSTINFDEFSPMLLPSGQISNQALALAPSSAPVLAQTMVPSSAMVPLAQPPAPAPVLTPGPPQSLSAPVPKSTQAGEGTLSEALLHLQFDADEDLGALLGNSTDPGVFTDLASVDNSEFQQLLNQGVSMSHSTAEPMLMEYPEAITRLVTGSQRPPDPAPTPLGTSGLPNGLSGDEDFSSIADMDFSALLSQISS

With `C=CCONC(=O)CCSSCCC(=O)O[C@@H]1CC[C@@]2(C)[C@@H](CC[C@@]3(C)[C@H]2[C@H](O)C[C@H]2/C(=C(\CCC=C(C)C)C(=O)OCc4ccccc4)[C@@H](OC(C)=O)C[C@@]23C)[C@@H]1C`, the MRT last in [1] came out at 0.99 h. For the same molecule, the inhibition result (in the series on Mus musculus [2]; with Mus musculus [3]; in series [14]; in the series on Mus musculus [15]) was “Active” throughout. Also, the inhibition entry in [4] and in series [13] was “Dose-Dependent Effect” throughout. Further, the outcome with Mus musculus [5], with Mus musculus [6], with Mus musculus [8], in the series on Mus musculus [10], in the series with Mus musculus [12] and with Mus musculus [16] was Active. In series [7], this molecule gave an AUC(0-inf) of 136 ng·h/mL. Moreover, the maximum concentration (Cmax) in series [9] was 66.5 ng/mL. In addition, the inhibition at 5 µM in the series on RAW264.7 is 78.7%. In addition, in [11], the half-life was 1.11 h. For the same molecule, the viability at 24 h, 40 µM in [17] amounted to 91.1%. Moreover, the MRT inf in [18] came to 2.02 h.

Usually MRT last stands for a mean duration of stay, worked out from the concentration-time curve. In general, inhibition refers to the share of the control response that was lost under treatment. As usually defined, the AUC(0-inf) is the area under the concentration-time curve extrapolated to infinity. A high value points to high exposure. As a reminder, the Cmax is the peak of the concentration-time curve. As usually defined, the half-life is the time needed for the level to fall by half in the phase considered. Read a low half-life as fast loss. As usually defined, the MRT inf is a mean duration of stay, worked out from the concentration-time curve.

(Values after ChEMBL document CHEMBL5247586, “Discovery of fusidic acid derivatives as novel STING inhibitors for treatment of sepsis” (Eur J Med Chem, 2022).)
